The values that follow come from patent US20240325328A1, “TREATMENT OF BRAIN […] CNS […] ILLUDINS OR HYDROXYLUREAMETHYL ACYLFULVENE” (Lantern Pharma Inc., priority 2021, published 2024).

A short description of data set [1]: Apparent BBB permeability in 3D in vitro blood brain barrier model. The note with it: human, 3D BBB model. The class given is in vitro ADME, human. An excerpt:
(§1) Hydroxy UreaMethyl Acylfulvene having a negative chirality or LP-184 permeates the blood brain barrier in vitro 3D model, which closely recapitulates the human blood brain barrier. This model mimics transport properties of the BBB due to the formation of tight junctions, higher expression of specific carriers, and/or great cell viability. This 3D in vitro model of the BBB created by co-culturing brain endothelial cells, with pericytes and astrocytes layered in an insert, improves endothelial cell polarization, and enhances the formation of tight junctions, provides better endothelial cell-to-cell contact that is important for barrier development, and prevents the dilution of secreted neurotrophic factors. These conditions collectively lead to the development of an in vitro model that mimics the BBB.
(§2) This assay leverages the novel 3D BBB model that allows studying both compound transport across the barrier as well as the effect of compounds on the structure and function of the BBB. […] LP-184 was as effective as the standard of care drug TMZ in penetrating the blood brain barrier. Apparent BBB permeability measured for TMZ was 1.72*10^−4 cm/s at 30 minutes and for LP-184 was 1.53*10^−4 cm/s at 30 minutes (FIG. 1).

The test system of data set [2] is blood brain barrier in vitro 3D model (co-cultured brain endothelial cells, pericytes and astrocytes). Described as above. Format: in vitro ADME, human. Particulars: 3D BBB model, at 30 minutes.
Source text: as §1, §2

For data set [3] the test system is unchanged. The data set is described as follows: Impact on cell viability and BBB integrity in 3D BBB model. Format: cell-based, human. The note with it: 3D BBB model, compound treatment.
Source text: as §1, §2

The nature of data set [4]: Pharmacokinetics of LP-184 in plasma, normal brain and brain tumor. The class given is in vivo, mice.
Data set [5] concerns 3D models of patient-derived xenograft (PDX) derived brain metastases of primary lung and breast cancers. Description: Potency in 3D models of PDX-derived brain metastases. The note with it: 72-hour treatment period, various brain metastasis models, range over models and testing conditions. Format: cell-based.
[6] abbreviates: Contralateral Normal Brain, 4 mg/kg IV.
Setting [7] is: Peritumoral Normal Brain, 4 mg/kg IV.

As usually defined, the Papp is a coefficient for how fast a substance crosses the barrier. Broadly, the Tmax is the time at which the peak concentration occurs. The term clearance denotes a measure of how efficiently the substance is removed, as volume per time. A word on the IC50: it is the concentration needed to halve the response being measured. A higher IC50 goes with a need for much substance.

With `Cn1nnc2c(C(N)=O)ncn2c1=O` [TMZ, Temozolomide, reference compound], in data set [1], the Papp at 30 min amounted to 172 ×10⁻⁶ cm/s.

For the molecule `CC1=C(CN(O)C(N)=O)C2=C(C)C3(CC3)[C@@](C)(O)C(=O)C2=C1` [LP-184, Hydroxy UreaMethyl Acylfulvene], in data set [2], the “Apparent BBB permeability” value is given as 1.53*10^−4 cm/s. In addition, the BBB integrity result in data set [3] was “BBB integrity was not compromised”. Besides, the “Impact on cell viability” value in data set [3] was “insignificant impact on cell viability”. In addition, the “Brain Tissue/Plasma Ratio” value was 0.200 in data set [4] (Brain Tumor, 4 mg/kg IV); 0.077 in data set [4] (setting [6]); 0.103 in data set [4] (setting [7]). Further, the Half-Life in data set [4] (Brain Tumor, 4 mg/kg IV) came to 16.9 min; in data set [4] (setting [6]), 26.6 min; in data set [4] (setting [7]), 23 min; in data set [4] (Plasma, 4 mg/kg IV), 14.2 min. The Tmax in data set [4] (Brain Tumor, 4 mg/kg IV) was 5 min; in data set [4] (setting [6]), 15 min; in data set [4] (setting [7]), 15 min; in data set [4] (Plasma, 4 mg/kg IV) it was 5 min. Also, the AUC0-t amounted to 123 ± 15.9 ng·h/g in data set [4] (Contralateral Normal Brain, 4 mg/kg IV, Mean ± SEM); 165 ± 11.6 ng·h/g in data set [4] (Peritumoral Normal Brain, 4 mg/kg IV, Mean ± SEM); 1592 ± 48.7 ng·h/mL in data set [4] (Plasma, 4 mg/kg IV, Mean ± SEM). The Cmax in data set [4] (Plasma, 4 mg/kg IV, Mean ± SEM) is 3438 ± 125^ ng/ml. Also, in data set [4] (based on AUC), the “brain tumor exposure relative to plasma” value is on record as ~20%. The “brain tumor exposure compared to normal brain” value in data set [4] (higher in brain tumor) was ~2 fold. Besides, the values for the clearance in data set [4] (mice with tumors) and in data set [4] (non-tumored mice) were 39.82 mL/min/kg and 88.07 mL/min/kg, respectively. In addition, the IC50 in data set [5] fell in the range of 88 to 4280 nM.
